Values joined by “and” are separate entries in the source; they are usually repeats but may differ in a detail not shown here. Equal entries are not always repeated.
Experiments:
Conditions in all cases: incubation time: 72 h
BT-474 [1] = assay: normalised viability (% of control), CellTiter-Blue; higher = more viable cells (about 100 = DMSO control)
Procedure, shortened: (§1)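 Normalised viability is given for a single listed concentration of the series. In 384-well plates, breast cancer cell lines were incubated 72 h with compound, then read with CellTiter-Blue (2 h, 37 °C) at 560/590 nm. Per-plate scaling set vehicle to 100 and a positive kill control to 0, with Z'-factor quality control.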

BT-549 [2] = assay: as above
Procedure, shortened: as §1

CAL-148 [3] = assay: as above
Procedure, shortened: as §1

CAL-51 [4] = assay: as above
Procedure, shortened: as §1

HCC1143 [5] = assay: as above
Procedure, shortened: as §1

HCC1599 [6] = assay: as above
Procedure, shortened: as §1

HCC1937 [7] = assay: as above
Procedure, shortened: as §1

MDA-MB-231 [8] = assay: as above
Procedure, shortened: as §1

MDA-MB-436 [9] = assay: as above
Procedure, shortened: as §1

MDA-MB-453 [10] = assay: as above
Procedure, shortened: as §1

BT-474 [11] = assay: drug sensitivity score (DSS), CellTox Green (DSS (AUC-based score)); higher = stronger drug effect (viability inhibition or cytotoxicity); extreme values may be limits of the assay
Procedure, shortened: (§2)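 Breast cancer cell lines were seeded in 20 µl suspension into 384-well plates already holding compound and incubated for 72 h. Each compound was tested at 5 concentrations in 10-fold steps across its own 10,000-fold range. Plates were normalised to 0.1 % DMSO and a positive kill control after CellTox Green and then CellTiter-Glo readings. The area under the fitted dose-response curve served as the basis for the drug sensitivity score.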

BT-549 [12] = assay: as above
Procedure, shortened: as §2

CAL-120 = assay: as above
Procedure, shortened: as §2

CAL-148 [13] = assay: as above
Procedure, shortened: as §2

CAL-51 [14] = assay: as above
Procedure, shortened: as §2

CAL-85-1 = assay: as above
Procedure, shortened: as §2

DU-4475 = assay: as above
Procedure, shortened: as §2

HCC1143 [15] = assay: as above
Procedure, shortened: as §2

HCC1599 [16] = assay: as above
Procedure, shortened: as §2

HCC1937 [17] = assay: as above
Procedure, shortened: as §2

HDQ-P1 = assay: as above
Procedure, shortened: as §2

Hs578T = assay: as above
Procedure, shortened: as §2

MCF-10A = assay: as above
Procedure, shortened: as §2

MDA-MB-231 [18] = assay: as above
Procedure, shortened: as §2

MDA-MB-436 [19] = assay: as above
Procedure, shortened: as §2

MDA-MB-453 [20] = assay: as above
Procedure, shortened: as §2

MDA-MB-468 = assay: as above
Procedure, shortened: as §2

MFM-223 = assay: as above
Procedure, shortened: as §2

Compound	normalised viability (BT-474 [1]; 10 nM)	normalised viability (BT-549 [2]; 10 nM)	normalised viability (CAL-148 [3]; 3 nM)	normalised viability (CAL-51 [4]; 3 nM)	normalised viability (HCC1143 [5]; 10 nM)	normalised viability (HCC1599 [6]; 10 nM)	normalised viability (HCC1937 [7]; 10 nM)	normalised viability (MDA-MB-231 [8]; 10 nM)	normalised viability (MDA-MB-436 [9]; 10 nM)	normalised viability (MDA-MB-453 [10]; 3 nM)	drug sensitivity score (BT-474 [11])	drug sensitivity score (BT-549 [12])	drug sensitivity score (CAL-120)	drug sensitivity score (CAL-148 [13])	drug sensitivity score (CAL-51 [14])	drug sensitivity score (CAL-85-1)	drug sensitivity score (DU-4475)	drug sensitivity score (HCC1143 [15])	drug sensitivity score (HCC1599 [16])	drug sensitivity score (HCC1937 [17])	drug sensitivity score (HDQ-P1)	drug sensitivity score (Hs578T)	drug sensitivity score (MCF-10A)	drug sensitivity score (MDA-MB-231 [18])	drug sensitivity score (MDA-MB-436 [19])	drug sensitivity score (MDA-MB-453 [20])	drug sensitivity score (MDA-MB-468)	drug sensitivity score (MFM-223)	normalised viability (BT-474 [1]; 1 nM)	normalised viability (BT-549 [2]; 1 nM)	normalised viability (CAL-148 [3]; 0.3 nM)	normalised viability (CAL-51 [4]; 0.3 nM)	normalised viability (HCC1143 [5]; 1 nM)	normalised viability (HCC1599 [6]; 1 nM)	normalised viability (HCC1937 [7]; 1 nM)	normalised viability (MDA-MB-231 [8]; 1 nM)	normalised viability (MDA-MB-436 [9]; 1 nM)	normalised viability (MDA-MB-453 [10]; 0.3 nM)
O=C(O)CCCc1ccc(N(CCCl)CCCl)cc1 [Chlorambucil]	120%	80.9%	98%	115%	83.5%	108%	51.5%	101%	89.7%	131%	0	0	0	0	0	0	0	0	0	0	0	0	0	0	2.34	0	0	0	–	–	–	–	–	–	–	–	–	–
CCCCCCCCc1ccc(CCC(N)(CO)CO)cc1 [Fingolimod]	121%	94%	85.7%	119%	80.8%	88.3%	116%	94.8%	100%	114%	5.23	1.17	0.861	0	1.3	7.94	0	0	0	17.9	2.47	1.46	11.1	6.51	2.64	1.86	6.79	0.724	–	–	–	–	–	–	–	–	–	–
Cc1ccc(NC(=O)c2ccc(CN3CCN(C)CC3)cc2)cc1Nc1nccc(-c2cccnc2)n1 [Imatinib]	108% and 112%	87.7% and 100%	80.4% and 92.6%	111% and 108%	79% and 81.2%	105% and 120%	89.5% and 92.4%	81% and 98.2%	117% and 111%	129% and 110%	0	0	0	0	0	0	0	0	0	0	0	0.401	0	0	0	6.17	0	0	–	–	–	–	–	–	–	–	–	–
C/C(=C\c1csc(C)n1)[C@@H]1C[C@@H]2O[C@]2(C)CCC[C@H](C)[C@H](O)[C@@H](C)C(=O)C(C)(C)[C@@H](O)CC(=O)O1 [Patupilone]	–	–	–	–	–	–	–	–	–	–	8.09	0	2.68	8.8	21	14.4	0	0.908	0	0	0	7.9	7.87	9.94	10.2	0	25.1	3	103%	106%	96.3%	106%	91.6%	108%	79.4%	59.6%	86.8%	114%
CN1CCN(CCOc2cc(OC3CCOCC3)c3c(Nc4c(Cl)ccc5c4OCO5)ncnc3c2)CC1 [Saracatinib]	100%	94.2%	77.1%	107%	88%	86.7%	107%	80.7%	116%	119%	1.96	0	0	0	6.5	6.93	0	0	0	0	2.22	0	0	0	9.13	0	0	0	–	–	–	–	–	–	–	–	–	–
Cn1cncc1[C@@](N)(c1ccc(Cl)cc1)c1ccc2c(c1)c(-c1cccc(Cl)c1)cc(=O)n2C [Tipifarnib]	109%	86.3%	92.2%	108%	71.9%	92.7%	95.6%	82.2%	94.1%	102%	0	0	0	0	10.3	0.98	0	0	0	0	0	0	0	0	0	0	0	0	–	–	–	–	–	–	–	–	–	–
O=C1NC(=O)[C@@H](c2cn3c4c(cccc24)CCC3)[C@@H]1c1c[nH]c2ccccc12 [Tivantinib]	–	–	–	–	–	–	–	–	–	–	0	0	1.28	7.13	2.14	5.35	0	0	0	0	0	5.63	0	3.62	0	0	0	0	127%	107%	97.9%	104%	90.7%	115%	67.8%	106%	97.7%	122%
CC[C@]1(O)C[C@H]2CN(CCc3c([nH]c4ccccc34)[C@@](C(=O)OC)(c3cc4c(cc3OC)N(C=O)[C@H]3[C@@](O)(C(=O)OC)[C@H](OC(C)=O)[C@]5(CC)C=CCN6CC[C@]43[C@@H]65)C2)C1 [Vincristine]	47.9%	43.7%	85.3%	103%	40.7%	106%	23.1%	27.5%	70.6%	65%	6.14	9.25	1.68	0	14.1	14.4	0	0	2.79	0	0	8.32	14.2	15.7	0	0	22.1	12.5	53.4%	82.7%	80.4%	102%	71%	84.1%	99.2%	73.8%	105%	112%

Reference: the supplement of paper PMC4862054
